ChEMBL document CHEMBL1201862, “PubChem BioAssay data set” (2004)
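96-well plates; 48 h exposure; 5 concentrations. Endpoints by linear interpolation between flanking doses. Not reached: highest tested concentration assigned. GI50: concentration for 50% inhibition of growth.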 Activity calls are given as the source filed them. Rule as the data show it: active = GI50 up to about 1.1 µM and inactive = higher.

How the values were obtained:
Assay in all cases: NCI tumour cell line growth inhibition, 48 h
SNB-75 = test system: SNB-75
SN12C = test system: SN12C
UO-31 = test system: UO-31
SK-MEL-5 = test system: SK-MEL-5
A498 = test system: A498
NCI-H460 = test system: NCI-H460
SK-MEL-28 = test system: SK-MEL-28
SF-295 = test system: SF-295
CCRF-CEM = test system: CCRF-CEM
OVCAR-4 = test system: OVCAR-4
786-0 = test system: 786-0
EKVX = test system: EKVX
UACC-62 = test system: UACC-62
MDA-MB-231 = test system: MDA-MB-231
MDA-N = test system: MDA-N
PC-3 = test system: PC-3
MCF7 = test system: MCF7

Measured: GI50

COC(=O)C(/C(=N\O)C(=O)Nc1ccc(Br)cc1)c1nc2ccccc2nc1O (configuration not stated)
inactive: SNB-75 23.6 µM | SN12C 35.8 µM | UO-31 > 100 µM | SK-MEL-5 28.6 µM | A498 61 µM | NCI-H460 89.9 µM | SK-MEL-28 36.7 µM | SF-295 > 100 µM | CCRF-CEM 25.3 µM | OVCAR-4 64.7 µM | 786-0 31 µM | EKVX 67.3 µM | UACC-62 26.9 µM

COc1ccc(NC(=O)c2cc(OC)c(OC)c(OC)c2)cc1
inactive: SNB-75 42.2 µM | SN12C 55 µM | UO-31 64.1 µM | SK-MEL-5 28.2 µM | A498 43.6 µM | NCI-H460 35.9 µM | SK-MEL-28 29 µM | SF-295 36.1 µM | CCRF-CEM 37.8 µM | OVCAR-4 > 100 µM | 786-0 > 81.8 µM | EKVX > 69.2 µM | UACC-62 31 µM

O=c1[nH]c(=O)n(COCc2ccccc2)c2ccc([N+](=O)[O-])cc12
inactive: SNB-75 > 100 µM | SN12C > 100 µM | MDA-MB-231 > 100 µM | UO-31 > 100 µM | SK-MEL-5 > 100 µM | A498 > 100 µM | SK-MEL-28 > 100 µM | MDA-N > 100 µM | SF-295 > 100 µM | CCRF-CEM > 100 µM | PC-3 > 100 µM | MCF7 > 100 µM | OVCAR-4 56.5 µM | 786-0 80 µM | EKVX > 100 µM | UACC-62 > 100 µM

COc1ccc(CNC2=C(NC(C)=O)C(=O)c3ccccc3C2=O)cc1
inactive: SNB-75 12.8 µM | SN12C 16.8 µM | UO-31 9.53 µM | SK-MEL-5 7.48 µM | NCI-H460 15.2 µM | SK-MEL-28 18.3 µM | SF-295 17.8 µM | CCRF-CEM 8.73 µM | OVCAR-4 8.13 µM | 786-0 24.4 µM | EKVX 14.7 µM | UACC-62 7.73 µM

O=[N+]([O-])C(/C=N/Nc1ccccc1)/C=N/Nc1ccccc1
inactive: SNB-75 > 100 µM | SN12C > 100 µM | UO-31 > 100 µM | SK-MEL-5 > 100 µM | A498 > 100 µM | NCI-H460 > 100 µM | SK-MEL-28 > 100 µM | SF-295 > 100 µM | CCRF-CEM > 100 µM | OVCAR-4 > 100 µM | 786-0 > 100 µM | EKVX > 100 µM | UACC-62 > 100 µM

CN(N=O)C(=O)N(N)CCCCC(NC(=O)OCc1ccccc1)C(=O)OCc1ccccc1 (configuration not stated)
inactive: SNB-75 20.6 µM | SN12C 18.6 µM | UO-31 18.7 µM | SK-MEL-5 44.7 µM | A498 69.7 µM | NCI-H460 32.5 µM | SK-MEL-28 > 100 µM | SF-295 75.9 µM | CCRF-CEM 14.3 µM | OVCAR-4 33.7 µM | 786-0 18.5 µM | EKVX > 100 µM | UACC-62 18.5 µM

CC1=C(C(=O)NCc2ccccc2)C(c2ccccc2O)C(C(=O)NCc2ccccc2)=C(C)N1
inactive: SNB-75 23.6 µM | SN12C 17.1 µM | UO-31 16.7 µM | SK-MEL-5 15 µM | A498 19 µM | NCI-H460 18.4 µM | SK-MEL-28 18 µM | SF-295 21.1 µM | CCRF-CEM 26.5 µM | OVCAR-4 17 µM | 786-0 19.3 µM | EKVX 22.2 µM | UACC-62 16.1 µM

COc1cc(OC)c2c(=O)c3c([N+](=O)[O-])cccc3n(C)c2c1
inactive: SNB-75 > 100 µM | SN12C > 100 µM | UO-31 > 100 µM | SK-MEL-5 > 100 µM | A498 > 100 µM | NCI-H460 > 100 µM | SK-MEL-28 > 100 µM | SF-295 > 100 µM | CCRF-CEM > 100 µM | OVCAR-4 > 100 µM | 786-0 > 100 µM | EKVX > 100 µM | UACC-62 > 100 µM

COc1ccc2n[se]nc2c1
inactive: SNB-75 64.1 µM | SN12C > 100 µM | UO-31 59.3 µM | SK-MEL-5 50.1 µM | SK-MEL-28 > 100 µM | SF-295 32 µM | CCRF-CEM > 100 µM | OVCAR-4 > 100 µM | 786-0 48.3 µM | EKVX > 100 µM | UACC-62 > 100 µM

N#CCN1CCOCCOCCN(CC#N)CCOCCOCC1
inactive: SNB-75 > 100 µM | SN12C > 100 µM | UO-31 > 100 µM | SK-MEL-5 > 100 µM | A498 > 100 µM | NCI-H460 > 100 µM | SK-MEL-28 > 100 µM | SF-295 > 100 µM | CCRF-CEM > 100 µM | OVCAR-4 > 100 µM | 786-0 > 100 µM | EKVX > 100 µM | UACC-62 > 100 µM

C#CC1/C(=C\C(=O)OC)CCCC1O (configuration not stated)
inactive: SNB-75 > 100 µM | SN12C > 100 µM | UO-31 > 100 µM | SK-MEL-5 > 100 µM | A498 > 100 µM | NCI-H460 > 100 µM | SF-295 > 100 µM | CCRF-CEM > 100 µM | OVCAR-4 > 100 µM | 786-0 > 100 µM | EKVX > 100 µM | UACC-62 > 100 µM

CCC(=O)C12OC3OC(C)(C)OC3C1OC(C)(C)O2 (configuration not stated)
inactive: SNB-75 > 100 µM | SN12C > 100 µM | UO-31 > 100 µM | SK-MEL-5 > 10 µM | A498 > 100 µM | NCI-H460 > 100 µM | SK-MEL-28 > 100 µM | SF-295 > 100 µM | CCRF-CEM > 100 µM | OVCAR-4 > 100 µM | 786-0 > 100 µM | EKVX > 100 µM | UACC-62 > 100 µM

COc1ccc(/C=C2\CCC(C)(CN(C)C)C2=O)cc1OC (configuration not stated)
inactive: SNB-75 > 100 µM | SN12C > 100 µM | UO-31 > 100 µM | SK-MEL-5 > 100 µM | A498 > 100 µM | NCI-H460 > 100 µM | SK-MEL-28 > 100 µM | SF-295 > 100 µM | CCRF-CEM > 100 µM | OVCAR-4 > 100 µM | 786-0 > 100 µM | EKVX 32.8 µM | UACC-62 > 100 µM

O=C(CSc1nnc(Cc2ccccc2)o1)Nc1ccc(Cl)cc1
inactive: SNB-75 67.8 µM | SN12C > 100 µM | UO-31 > 100 µM | SK-MEL-5 57.8 µM | A498 46.8 µM | NCI-H460 77.3 µM | SK-MEL-28 > 100 µM | SF-295 66.8 µM | CCRF-CEM > 100 µM | OVCAR-4 58.7 µM | 786-0 > 100 µM | EKVX 32.7 µM | UACC-62 41.8 µM

OC(c1ccccc1)(c1ccccc1)c1cccnc1
inactive: SNB-75 86.1 µM | SN12C > 100 µM | UO-31 > 100 µM | SK-MEL-5 > 100 µM | A498 > 100 µM | NCI-H460 > 100 µM | SK-MEL-28 > 100 µM | SF-295 > 100 µM | CCRF-CEM > 100 µM | OVCAR-4 > 100 µM | 786-0 > 100 µM | EKVX > 100 µM | UACC-62 > 100 µM

CNC(=O)CN(CC(=O)O)C(=O)NC
inactive: SNB-75 > 100 µM | UO-31 > 100 µM | SK-MEL-5 > 100 µM | A498 > 100 µM | SF-295 > 100 µM | CCRF-CEM > 100 µM | OVCAR-4 > 100 µM | 786-0 > 100 µM | EKVX > 100 µM | UACC-62 > 100 µM

CC(=O)Oc1cc2c(cc1OC(C)=O)C1(C)CCC2(C)c2cc(OC(C)=O)c(OC(C)=O)cc21
inactive: SNB-75 4.92 µM | SN12C 40.3 µM | UO-31 23.4 µM | SK-MEL-5 22.6 µM | NCI-H460 20.8 µM | SK-MEL-28 21.4 µM | SF-295 24.5 µM | CCRF-CEM 2.87 µM | OVCAR-4 14.4 µM | 786-0 15 µM | EKVX 35.8 µM | UACC-62 13.2 µM

COc1cc2c(cc1OC)c1c(OC)c(OC)cc3c1c1c2sc(=S)n1CC3
inactive: SNB-75 74.6 µM | SN12C 64.6 µM | UO-31 > 100 µM | SK-MEL-5 41.5 µM | A498 > 100 µM | NCI-H460 42.7 µM | SK-MEL-28 46.9 µM | SF-295 > 100 µM | CCRF-CEM 24.5 µM | OVCAR-4 55 µM | 786-0 18.1 µM | EKVX > 100 µM | UACC-62 24.4 µM

COc1ccc(C2C(Cl)C(=O)N2n2cnc3ccccc3c2=O)cc1OC (configuration not stated)
inactive: SNB-75 21.5 µM | SN12C > 100 µM | UO-31 22.3 µM | SK-MEL-5 > 100 µM | NCI-H460 81.1 µM | SK-MEL-28 68.7 µM | SF-295 > 100 µM | CCRF-CEM > 10 µM | OVCAR-4 > 100 µM | 786-0 > 100 µM | EKVX > 100 µM | UACC-62 74.1 µM

CC(=O)OC1COC(N2C(=O)/C(=N\Nc3ccc([N+](=O)[O-])cc3)c3cc(Br)c([N+](=O)[O-])cc32)C(OC(C)=O)C1OC(C)=O (configuration not stated)
inactive: SN12C > 100 µM | SK-MEL-5 24.1 µM | NCI-H460 > 100 µM | SK-MEL-28 > 100 µM | SF-295 21.4 µM | CCRF-CEM 61.5 µM | OVCAR-4 32.9 µM | 786-0 42 µM | EKVX 62.7 µM | UACC-62 15.3 µM

C[P+](C)(CC(F)(F)F)c1ccccc1
inactive: SNB-75 > 100 µM | SN12C > 100 µM | UO-31 > 100 µM | SK-MEL-5 > 100 µM | A498 > 100 µM | NCI-H460 > 100 µM | SF-295 > 100 µM | CCRF-CEM > 100 µM | 786-0 > 100 µM | EKVX > 100 µM | UACC-62 > 100 µM
